Here are results for eleven compounds from publication PMC7143578, “Terpenoids from the Deep-Sea-Derived Fungus Penicillium thomii YPGA3 and Their Bioactivities” (Marine Drugs, 2020).

In one data set the test system is RAW 264.7 cells. Nature of the data set: MTT cell viability of RAW 264.7 macrophages. In kind it is cell-based. As to conditions: MTT assay, 50 μM. The method, then: (§1) The isolated compounds were also evaluated for their inhibitory effects against NO production in LPS-activated RAW 264.7 macrophages at the concentration of 50 μM following the same procedures in our previous study. The cell viability was further determined by the MTT assay to evaluate whether the inhibition on NO production was owing to the cytotoxicity.
(In general: Tetrazolium assays rely on reduction of a dye to a coloured formazan, in cell work by metabolically active cells.)

Data set [1] can be described thus: MTT cell viability of RAW 264.7 macrophages. In kind it is cell-based. As to conditions: mouse, LPS-activated RAW 264.7 macrophages, MTT assay, read-out: cytotoxicity (%) toward RAW 264.7 (cell viability). As for the experimental part: as §1
A short description of data set [2]: Cytotoxicity toward MCF-7 breast carcinoma cells. In kind it is cell-based. On the set-up: concentration or dose not given beside the values. As to conditions: human, read-out: cytotoxicity (%) toward MCF-7 (cell viability).
For the next data set, the system named is MDA-MB-468 cells. Nature of the data set: Cytotoxicity toward MDA-MB-468 breast carcinoma cells. In kind it is cell-based, human. On the set-up: viability: concentration or dose not given beside the values. As to conditions: Homo sapiens, MDA-MB-468.
Assay in data set [3]: as above
More on the design: viability: concentration or dose not given beside the values. It counts as cell-based, human. As to conditions: human, MDA-MB-468 breast carcinoma cells; read-out: cytotoxicity (%) toward MDA-MB-468 (cell viability).

In data set [4] the test system is NO production in LPS-activated RAW 264.7 macrophages. Nature of the data set: Inhibition of NO production in LPS-activated RAW 264.7 macrophages. It counts as cell-based. As to conditions: Mus musculus, RAW264.7, 50 μM, read-out: Inhibitions (%) on NO production. As for the experimental part:
as §1

The subject of data set [5] is α-glucosidase from Saccharomyces cerevisiae. Nature of the data set: α-glucosidase inhibition assay (PNPG substrate). As to conditions: for inhibition of α-glucosidase: initial concentration of 1 mM; for IC50: three replicates, read-out: IC50 against α-glucosidase. In kind it is biochemical. As for the experimental part:
The α-glucosidase inhibitory effect was assessed as follows. First, 0.2 U of α-glucosidase from Saccharomyces cerevisiae was purchased from Sigma-Aldrich (St. Louis, MO, USA), and was diluted in a 0.067 M phosphate buffer consisting of Na2HPO4·12H2O and KH2PO4 (pH 6.8). The assay was conducted in a 60 μL reaction system containing 20 μL of diluted enzyme solution, and 20μL of dimethyl sulfoxide (DMSO) or sample (dissolved in DMSO). […] The plate was incubated for an additional 20 min at 37 °C, and the reaction was quenched by adding 60 μL of 0.2 M Na2CO3. The final concentrations of tested compounds were between 0.2 and 2 mM. The optical density (OD) was measured at an absorbance wavelength of 405 nm using a Microplate Reader (Tecan, Mannedorf, Switzerland).

By viability is commonly meant a read-out of living cells in per cent, often relative to untreated cells. A word on the IC50: it is the concentration needed to halve the response being measured. As for `COC(=O)CCC1(C)C(C(C)(C)O)CCC2(C)Oc3c(C)c4c(c(O)c3CC21)C(=O)OC4` (stereo not shown) [Compound 1, austalide Y], the “cytotoxicity (%) toward RAW 264.7 (cell viability)” value with RAW 264.7 cells is recorded as “obvious cytotoxic effects”. The viability at 50 µM in data set [1] was determined as 33.1%. The viability in data set [2] turned out to be 104%; in data set [3], 31.6%. Moreover, the half-maximal inhibitory concentration (IC50) in the data set with MDA-MB-468 cells is 38.9 ± 1.83 µM.

Regarding `COC(=O)CC[C@]1(C)[C@H]2Cc3c(c(C)c4c(c3OC)C(=O)OC4)O[C@@]2(C)C[C@@H](O)[C@H]1C(C)(C)O` [Compound 3, austalide H], in data set [1], the viability at 50 µM came out at 60.9%. The inhibition at 50 µM in data set [4] was -9.91%. Besides, the viability in data set [2] stood at 84.7%; in data set [3], 87.2%.

For `C=C1CCC2C(C)(CCC(O)C2(C)C(=O)O)C1CCC(C)=CC(=O)O` (stereo not drawn) [Compound 9, 3β-hydroxy-agathic acid], the viability at 50 µM in data set [1] worked out at 83.3%. For the same compound, the inhibition at 50 µM in data set [4] was 7.81%. For the same compound, the results for the viability in data set [2] and in data set [3] were 88.8% and 92.1%, respectively. Also, in data set [5], the “inhibition of α-glucosidase” value was “low inhibition”.

Turning to `COC(=O)CC[C@]1(C)[C@H]2Cc3c(c(C)c4c(c3OC)C(=O)OC4)O[C@@]2(C)CC[C@H]1C(C)(C)O` [Compound 2, austalide P], the “cytotoxicity (%) toward RAW 264.7 (cell viability)” value in the data set on RAW 264.7 cells is listed as “obvious cytotoxic effects”. The viability at 50 µM in data set [1] is 46.2%. The inhibition at 50 µM in data set [4] was over 50%. In addition, the values for the viability in data set [2] and in data set [3] were 117% and 78.2%, respectively. The “inhibition of α-glucosidase” value in data set [5] was “more than 50%”. Further, the IC50 in data set [5] was 910 ± 4 µM.

In the case of `C=C(C)[C@@H]1[C@H](O)C[C@]2(C)Oc3c(C)c4c(c(OC)c3C[C@@H]2[C@@]1(C)CCC(=O)O)C(=O)OC4` [Compound 7, austalide Q acid], the viability at 50 µM in data set [1] turned out to be 80.8%. Also, the inhibition at 50 µM in data set [4] was -3.08%. The viability in data set [2] turned out to be 74.8%; in data set [3], 91.1%.

As for `COc1c2c(c(C)c3c1C(=O)OC3)OC1(C)CC(O)C34OC(O)(CCC3(C)C1C2)OC4(C)C` (stereo not shown) [Compound 6, 17-O-demethylaustalide B], in data set [1], the viability at 50 µM turned out to be 74.6%. In addition, the inhibition at 50 µM in data set [4] is -3.74%. Further, the viability in data set [2] worked out at 73.8%; in data set [3], 92.3%.

As to `C=C1CCC2C(C)(CCC(OC(C)=O)C2(C)C(=O)O)C1CCC(C)=CC(=O)O` (stereo not drawn) [Compound 10, 3β-acetoxy-agathic acid], in the data set on RAW 264.7 cells, the “cytotoxicity (%) toward RAW 264.7 (cell viability)” value is reported as “obvious cytotoxic effects”. Also, the viability at 50 µM in data set [1] is 58.4%. The viability was 90% in data set [2] and 94.5% in data set [3]. In addition, the “inhibition of α-glucosidase” value in data set [5] is recorded as “low inhibition”.

On to `C=C1CC[C@@H]2[C@](C)(CCC[C@]2(C)C(=O)O)[C@H]1CC/C(C)=C/C(=O)O` [Compound 11, agathic acid], for which the viability at 50 µM in data set [1] is 89.9%. Besides, the inhibition at 50 µM in data set [4] was determined as 4.85%. Also, in data set [2], the viability came out at 83.5%. Moreover, in data set [5], the “inhibition of α-glucosidase” value is reported as “more than 50%” and the IC50 came out at 525 ± 2 µM. In addition, the viability in data set [3] is 89.3%.

Take `COc1c2c(c(C)c3c1C(=O)OC3)O[C@@]1(C)CC[C@@H](C(C)(C)O)[C@](C)(CCC(=O)O)[C@H]1C2` [Compound 4, austalide P acid]: the viability at 50 µM in data set [1] stood at 97.4%. Besides, the inhibition at 50 µM in data set [4] is 5.29%. The viability was determined as 82.4% in data set [2] and 92.6% in data set [3].

As to `COc1c2c(c(C)c3c1C(=O)OC3)O[C@@]1(C)C[C@@H](O)[C@@H](C(C)(C)O)[C@](C)(CCC(=O)O)[C@H]1C2` [Compound 5, austalide H acid], in data set [1], the viability at 50 µM came out at 104%. In data set [4], the inhibition at 50 µM came out at 12.1%. For the same compound, the viability turned out to be 69.1% in data set [2] and 87.3% in data set [3].

On to `C=C(C)[C@@H]1CC[C@]2(C)Oc3c(C)c4c(c(OC)c3C[C@@H]2[C@@]1(C)CCC(=O)O)C(=O)OC4` [Compound 8, 13-deoxyaustalide Q acid], for which the viability at 50 µM in data set [1] turned out to be 53.5%. Further, in data set [4], the inhibition at 50 µM is 24%. Besides, the viability in data set [2] is 76.3%; in data set [3] it was 79.3%.
